Values quoted from earlier work in publication PMC5889410, “Design and Biological Evaluation of Antifouling Dihydrostilbene Oxime Hybrids” (Marine Biotechnology (New York, N.y.), 2018).

Assays:
[1] = tested on: blue mussel phenoloxidase; parameters: method as in Bayer et al. [2011]; conditions: ref Bayer et al. [2011]; cited from earlier work
[2] = tested on: Balanus improvisus cyprid larvae; conditions: B. improvisus larvae settlement; ref Ortlepp et al. [2007]; cited from earlier work

O=C(NCCc1ccc(O)cc1)C(Cc1ccc(O)cc1)=NO [Compound 4, debromohemibastadin-1]
inhibition of phenoloxidase, in words [1]: inhibit
minimum significant dose to inhibit settlement [2]: 100 µM
